Test results from ChEMBL document CHEMBL3526078, “Pharmacokinetics and hepatic uptake of eltrombopag, a novel platelet-increasing agent” (Drug Metab Dispos, 2011).

Key:
[1] = Maximum plasma concentration in mouse at 1 mg/kg, iv; assay type: ADME, organism-based; parameters: dose 1 mg/kg, route intravenous
Liver [2] = test: Drug uptake in mouse liver at 1 mg/kg, iv in presence of rifampicin OATP inhibitor; assay type: ADME, organism-based; parameters: dose 1 mg/kg, route intravenous; conditions: in vivo
[3] = Total clearance in wild-type mouse at 1 mg/kg, iv; assay type: ADME, organism-based; parameters: dose 1 mg/kg, route intravenous; conditions: in vivo
[4] = Total clearance in pdzk1(-/-) mouse at 1 mg/kg, iv; assay type: ADME, organism-based; parameters: dose 1 mg/kg, route intravenous; conditions: in vivo
[5] = target: T1, Solute carrier organic anion transporter family member 1B1 (Homo sapiens, UniProt Q9Y6L6); test: Inhibition of OATP1B1-mediated [3H]estrone-3-sulfate uptake in human OATP1B1 expressing HEK293/PDZK1 cells by scintillation counting; assay type: ADME, cell-based
T1 sequence (Q9Y6L6 whole entry): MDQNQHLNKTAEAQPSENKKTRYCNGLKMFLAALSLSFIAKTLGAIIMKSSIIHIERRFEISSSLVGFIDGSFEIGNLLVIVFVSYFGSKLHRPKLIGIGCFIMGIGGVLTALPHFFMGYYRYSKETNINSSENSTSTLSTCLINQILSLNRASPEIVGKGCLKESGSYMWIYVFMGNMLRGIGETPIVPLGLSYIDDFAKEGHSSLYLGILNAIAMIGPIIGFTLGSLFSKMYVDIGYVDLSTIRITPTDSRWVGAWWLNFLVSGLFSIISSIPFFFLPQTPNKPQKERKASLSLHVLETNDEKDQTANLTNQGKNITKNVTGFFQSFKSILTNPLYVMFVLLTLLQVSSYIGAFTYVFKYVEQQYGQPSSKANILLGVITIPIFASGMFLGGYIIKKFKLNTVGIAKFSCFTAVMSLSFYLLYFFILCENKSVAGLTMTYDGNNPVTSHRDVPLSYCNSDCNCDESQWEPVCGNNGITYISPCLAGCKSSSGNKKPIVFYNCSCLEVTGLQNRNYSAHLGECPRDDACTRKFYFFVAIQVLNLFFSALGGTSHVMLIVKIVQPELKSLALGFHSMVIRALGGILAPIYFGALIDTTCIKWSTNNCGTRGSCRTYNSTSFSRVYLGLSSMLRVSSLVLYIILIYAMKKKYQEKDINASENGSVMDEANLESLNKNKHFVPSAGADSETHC

[6] = target: T2, Solute carrier organic anion transporter family member 2B1 (Homo sapiens, UniProt O94956); test: Inhibition of OATP2B1-mediated [3H]estrone-3-sulfate uptake in human OATP2B1 expressing HEK293/PDZK1 cells by scintillation counting; assay type: ADME, cell-based
T2 sequence (O94956 whole entry): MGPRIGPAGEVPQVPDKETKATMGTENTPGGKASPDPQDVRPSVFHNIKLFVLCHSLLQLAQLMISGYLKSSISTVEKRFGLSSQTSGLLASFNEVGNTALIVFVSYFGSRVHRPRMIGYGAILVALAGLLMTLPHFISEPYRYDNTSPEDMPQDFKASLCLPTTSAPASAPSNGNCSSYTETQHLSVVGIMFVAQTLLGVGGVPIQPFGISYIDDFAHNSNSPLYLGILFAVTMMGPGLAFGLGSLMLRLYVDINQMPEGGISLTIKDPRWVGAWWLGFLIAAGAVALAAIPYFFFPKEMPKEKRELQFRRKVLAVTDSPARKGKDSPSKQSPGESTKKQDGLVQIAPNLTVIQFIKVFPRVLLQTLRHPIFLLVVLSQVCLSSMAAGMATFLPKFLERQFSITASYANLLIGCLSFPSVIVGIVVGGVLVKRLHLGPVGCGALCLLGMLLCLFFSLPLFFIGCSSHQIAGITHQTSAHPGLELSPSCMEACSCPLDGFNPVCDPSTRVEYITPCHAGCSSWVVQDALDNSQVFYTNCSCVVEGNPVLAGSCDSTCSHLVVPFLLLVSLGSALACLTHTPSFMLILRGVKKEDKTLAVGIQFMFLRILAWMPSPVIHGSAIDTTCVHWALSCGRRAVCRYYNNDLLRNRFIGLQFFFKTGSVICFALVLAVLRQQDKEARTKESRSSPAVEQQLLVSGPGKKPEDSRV

[7] = target: T3, Solute carrier organic anion transporter family member 1B3 (Homo sapiens, UniProt Q9NPD5); test: Inhibition of OATP1B3-mediated [3H]estradiol 17beta-glucuronide uptake in human OATP1B3 expressing HEK293/PDZK1 cells by scintillation counting; assay type: ADME, cell-based
T3 sequence (Q9NPD5 whole entry): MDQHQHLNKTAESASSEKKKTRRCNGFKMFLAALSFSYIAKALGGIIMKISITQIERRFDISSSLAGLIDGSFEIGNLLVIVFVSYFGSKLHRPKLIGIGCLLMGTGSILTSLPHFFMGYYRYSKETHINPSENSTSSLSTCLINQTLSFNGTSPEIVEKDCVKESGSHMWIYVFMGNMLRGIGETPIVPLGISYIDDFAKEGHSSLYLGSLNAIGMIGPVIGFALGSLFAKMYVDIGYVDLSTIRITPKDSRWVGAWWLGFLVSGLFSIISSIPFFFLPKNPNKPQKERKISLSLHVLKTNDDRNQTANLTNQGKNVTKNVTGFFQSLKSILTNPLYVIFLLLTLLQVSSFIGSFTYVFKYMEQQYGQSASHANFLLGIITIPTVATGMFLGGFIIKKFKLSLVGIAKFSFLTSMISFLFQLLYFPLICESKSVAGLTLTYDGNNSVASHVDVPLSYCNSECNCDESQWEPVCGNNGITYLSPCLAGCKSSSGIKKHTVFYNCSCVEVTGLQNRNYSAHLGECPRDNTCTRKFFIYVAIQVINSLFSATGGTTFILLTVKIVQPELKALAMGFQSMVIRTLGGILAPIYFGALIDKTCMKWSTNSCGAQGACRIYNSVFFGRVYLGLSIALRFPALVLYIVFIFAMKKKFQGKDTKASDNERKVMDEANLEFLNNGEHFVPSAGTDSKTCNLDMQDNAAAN

[8] = target: T4, Solute carrier family 22 member 1 (Homo sapiens, UniProt O15245); test: Inhibition of OCT1-mediated [14C]tetraethylammonium uptake in human OCT1 expressing HEK293/PDZK1 cells by scintillation counting; assay type: ADME, cell-based
T4 sequence (O15245 whole entry): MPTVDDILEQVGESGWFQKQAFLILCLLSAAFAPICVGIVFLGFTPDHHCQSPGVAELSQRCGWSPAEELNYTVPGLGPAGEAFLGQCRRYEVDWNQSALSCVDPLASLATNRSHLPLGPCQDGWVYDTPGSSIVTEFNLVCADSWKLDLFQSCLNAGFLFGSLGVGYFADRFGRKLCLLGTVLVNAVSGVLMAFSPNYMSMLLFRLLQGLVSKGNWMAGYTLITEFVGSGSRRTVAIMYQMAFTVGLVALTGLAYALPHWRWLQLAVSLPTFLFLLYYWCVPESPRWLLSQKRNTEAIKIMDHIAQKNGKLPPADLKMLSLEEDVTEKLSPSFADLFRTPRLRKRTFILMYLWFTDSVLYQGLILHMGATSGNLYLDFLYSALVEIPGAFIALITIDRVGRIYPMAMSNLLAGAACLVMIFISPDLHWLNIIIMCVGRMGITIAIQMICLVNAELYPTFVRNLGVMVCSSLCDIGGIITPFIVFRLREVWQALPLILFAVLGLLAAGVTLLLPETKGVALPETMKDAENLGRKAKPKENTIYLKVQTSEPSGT

[9] = target: T5, Organic cation/carnitine transporter 2 (Homo sapiens, UniProt O76082); test: Inhibition of OCTN2-mediated [14C]carnitine uptake in human OCTN2 expressing HEK293/PDZK1 cells by scintillation counting; assay type: cell-based
T5 sequence (O76082 whole entry): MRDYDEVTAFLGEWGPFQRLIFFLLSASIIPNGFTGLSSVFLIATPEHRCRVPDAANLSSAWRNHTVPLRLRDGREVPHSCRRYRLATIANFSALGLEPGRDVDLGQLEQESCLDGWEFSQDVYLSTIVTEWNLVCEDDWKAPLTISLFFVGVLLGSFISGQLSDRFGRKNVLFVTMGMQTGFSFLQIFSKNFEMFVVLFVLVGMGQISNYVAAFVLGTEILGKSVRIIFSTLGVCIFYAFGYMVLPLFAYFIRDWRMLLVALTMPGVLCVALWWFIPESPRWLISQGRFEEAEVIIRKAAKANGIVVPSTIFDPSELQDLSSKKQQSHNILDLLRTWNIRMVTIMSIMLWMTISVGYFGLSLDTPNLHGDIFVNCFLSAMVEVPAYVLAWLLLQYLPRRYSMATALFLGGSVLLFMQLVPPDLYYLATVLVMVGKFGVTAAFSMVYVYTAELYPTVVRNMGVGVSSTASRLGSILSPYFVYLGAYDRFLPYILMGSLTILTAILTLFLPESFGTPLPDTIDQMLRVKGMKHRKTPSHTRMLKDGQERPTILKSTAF

[10] = Drug metabolism in human feces assessed as oxidized metabolites at 50 mg, po single dose; assay type: ADME, organism-based; conditions: in vivo
[11] = Drug metabolism in human urine assessed as oxidized metabolites at 50 mg, po single dose; assay type: ADME, organism-based; conditions: in vivo
[12] = Drug excretion in Sprague-Dawley rat bile assessed as unchanged compound level at 1 mg/kg, iv for 72 hrs; assay type: ADME, organism-based; parameters: dose 1 mg/kg, route intravenous; conditions: read-out: Drug excretion
[13] = Drug excretion in Sprague-Dawley rat urine assessed as unchanged compound level at 1 mg/kg, iv for 72 hrs; assay type: ADME, organism-based; parameters: dose 1 mg/kg, route intravenous; conditions: read-out: Drug excretion
[14] = Total clearance in bile duct cannulated Sprague-Dawley rat at 1 mg/kg, iv; assay type: ADME, organism-based; parameters: dose 1 mg/kg, route intravenous; conditions: in vivo
Liver [15] = test: Drug uptake in mouse liver at 1 mg/kg, iv in presence of 30 umol/kg TPeA; assay type: ADME, organism-based; parameters: dose 1 mg/kg, route intravenous; conditions: in vivo
Liver [16] = test: Tissue uptake clearance in bile duct cannulated Sprague-Dawley rat liver at 1 mg/kg, iv by integration plot analysis; assay type: ADME, organism-based; parameters: dose 1 mg/kg, route intravenous; conditions: in vivo
Kidney [17] = test: Drug uptake in mouse kidney at 1 mg/kg, iv in presence of 20 mg/kg OATP inhibitor rifampicin; assay type: ADME, organism-based; conditions: in vivo
Kidney [18] = test: Drug uptake in mouse kidney at 1 mg/kg, iv in presence of 30 umol/kg TPeA; assay type: ADME, organism-based; parameters: dose 1 mg/kg, route intravenous; conditions: in vivo
Liver [19] = conditions: rat, in vivo, iv, 1 mg/kg

Compound: CC1=NN(c2ccc(C)c(C)c2)C(=O)/C1=N\Nc1cccc(-c2cccc(C(=O)O)c2)c1O [ELTROMBOPAG]
- Cmax [1]: 40 µM
- Drug uptake (Liver [2]): Not Active
- clearance [3]: 1.29 mL/min/kg
- clearance [4]: 0.92 mL/min/kg
- Ki [5]: 14.9 µM
- inhibition (INH) ([5]; human, hek293/pdzk1): Active
- Ki [6]: 8.48 µM
- inhibition (INH) ([6]; human, hek293/pdzk1): Active
- Ki [7]: 25.6 µM
- inhibition (INH) ([7]; human, hek293/pdzk1): Active
- Ki [8]: 103 µM
- inhibition (INH) ([8]; human, hek293/pdzk1): Active
- inhibition (INH) [9]: Not Active
- Drug excretion [10]: 59%
- Drug excretion [11]: 31%
- dose excreted at 72 h [12]: 40%
- dose excreted at 72 h [13]: < 0.02%
- clearance [14]: 0.572 mL/min/kg
- Drug uptake (Liver [15]): Not Active
- CLup (Liver [16]): 0.747 mL/min/kg
- Drug uptake (Kidney [17]): Active
- Drug uptake (Kidney [18]): Active
- CLup (Liver [19]): 0.38 mL/min/kg
